Columns and labels:
Experiment in all cases: kinome screen (33PanQinase)
Type in all cases: biochemical
[1] = target: T1, EIF2AK3 (Homo sapiens, UniProt Q9NZJ5)
T1 construct: purchased Reaction Biology Europe GmbH (formerly ProQinase)
T1 sequence (Q9NZJ5 30-1116): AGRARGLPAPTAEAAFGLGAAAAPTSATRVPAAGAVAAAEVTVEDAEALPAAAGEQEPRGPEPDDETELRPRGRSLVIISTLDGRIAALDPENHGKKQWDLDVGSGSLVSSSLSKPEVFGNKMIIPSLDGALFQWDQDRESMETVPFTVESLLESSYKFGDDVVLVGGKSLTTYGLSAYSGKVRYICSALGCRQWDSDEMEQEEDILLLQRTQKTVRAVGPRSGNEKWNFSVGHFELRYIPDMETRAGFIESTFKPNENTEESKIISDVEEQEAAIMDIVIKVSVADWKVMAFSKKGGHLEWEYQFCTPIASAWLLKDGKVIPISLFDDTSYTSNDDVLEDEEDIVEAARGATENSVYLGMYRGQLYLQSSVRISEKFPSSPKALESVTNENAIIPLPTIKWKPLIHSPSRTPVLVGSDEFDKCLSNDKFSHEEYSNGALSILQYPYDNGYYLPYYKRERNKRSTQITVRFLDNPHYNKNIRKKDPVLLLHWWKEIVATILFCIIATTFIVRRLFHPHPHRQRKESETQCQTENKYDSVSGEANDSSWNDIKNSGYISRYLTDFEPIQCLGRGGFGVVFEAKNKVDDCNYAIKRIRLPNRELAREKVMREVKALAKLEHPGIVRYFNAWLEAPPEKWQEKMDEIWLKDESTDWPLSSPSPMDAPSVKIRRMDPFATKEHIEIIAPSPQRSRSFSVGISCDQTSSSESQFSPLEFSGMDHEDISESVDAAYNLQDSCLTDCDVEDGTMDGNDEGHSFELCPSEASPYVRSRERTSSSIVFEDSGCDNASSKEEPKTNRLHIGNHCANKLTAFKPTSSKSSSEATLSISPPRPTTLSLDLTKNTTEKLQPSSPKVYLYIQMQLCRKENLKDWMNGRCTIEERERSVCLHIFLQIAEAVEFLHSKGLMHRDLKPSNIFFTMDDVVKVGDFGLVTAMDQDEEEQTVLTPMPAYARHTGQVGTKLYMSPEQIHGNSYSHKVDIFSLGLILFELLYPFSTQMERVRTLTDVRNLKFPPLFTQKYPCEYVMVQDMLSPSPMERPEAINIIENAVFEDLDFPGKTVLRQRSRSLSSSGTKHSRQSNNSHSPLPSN
Procedure: (§1) The Kinome Screening was performed by Reaction Biology Europe GmbH (http://reactionbiology.com; Freiburg i. Br., Germany).

[2] = target: T2, CAMK2A (Homo sapiens, UniProt Q9UQM7)
T2 construct: purchased Reaction Biology Europe GmbH (formerly ProQinase)
T2 sequence (Q9UQM7 whole entry): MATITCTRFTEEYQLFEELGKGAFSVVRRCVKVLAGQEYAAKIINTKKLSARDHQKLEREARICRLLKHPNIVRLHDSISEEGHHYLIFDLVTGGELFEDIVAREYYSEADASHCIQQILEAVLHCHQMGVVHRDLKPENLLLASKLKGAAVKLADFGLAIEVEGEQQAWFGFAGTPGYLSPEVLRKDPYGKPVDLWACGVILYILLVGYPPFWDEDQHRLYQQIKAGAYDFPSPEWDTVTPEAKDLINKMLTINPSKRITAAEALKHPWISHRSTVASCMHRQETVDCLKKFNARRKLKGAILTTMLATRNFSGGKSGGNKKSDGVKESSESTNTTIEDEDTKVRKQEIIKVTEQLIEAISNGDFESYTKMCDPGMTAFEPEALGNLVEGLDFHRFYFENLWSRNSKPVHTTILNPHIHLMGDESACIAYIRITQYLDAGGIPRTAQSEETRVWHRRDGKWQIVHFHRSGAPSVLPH
Procedure: as §1

[3] = target: T3, TNK1 (Homo sapiens, UniProt Q13470)
T3 construct: purchased Reaction Biology Europe GmbH (formerly ProQinase)
T3 sequence (Q13470 1-666): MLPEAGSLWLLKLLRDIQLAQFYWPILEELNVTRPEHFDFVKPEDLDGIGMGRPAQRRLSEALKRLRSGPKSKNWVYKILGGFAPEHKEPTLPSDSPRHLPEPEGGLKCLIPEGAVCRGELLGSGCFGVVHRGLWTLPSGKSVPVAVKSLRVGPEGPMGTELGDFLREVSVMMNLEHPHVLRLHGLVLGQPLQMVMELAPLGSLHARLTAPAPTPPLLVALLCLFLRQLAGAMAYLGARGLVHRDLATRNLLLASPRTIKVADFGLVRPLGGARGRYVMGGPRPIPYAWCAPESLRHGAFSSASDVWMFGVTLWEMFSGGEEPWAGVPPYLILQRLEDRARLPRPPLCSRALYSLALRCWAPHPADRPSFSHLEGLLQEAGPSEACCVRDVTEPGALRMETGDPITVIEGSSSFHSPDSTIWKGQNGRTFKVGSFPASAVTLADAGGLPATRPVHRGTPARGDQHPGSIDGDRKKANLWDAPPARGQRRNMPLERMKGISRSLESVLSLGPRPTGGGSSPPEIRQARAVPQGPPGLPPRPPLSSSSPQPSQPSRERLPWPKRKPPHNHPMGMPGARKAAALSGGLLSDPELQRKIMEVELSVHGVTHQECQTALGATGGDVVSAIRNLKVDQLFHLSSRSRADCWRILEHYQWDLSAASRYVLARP
Procedure: as §1

[4] = target: T4, RPS6KA5 (Homo sapiens, UniProt O75582)
T4 construct: purchased Reaction Biology Europe GmbH (formerly ProQinase)
T4 sequence (O75582 whole entry): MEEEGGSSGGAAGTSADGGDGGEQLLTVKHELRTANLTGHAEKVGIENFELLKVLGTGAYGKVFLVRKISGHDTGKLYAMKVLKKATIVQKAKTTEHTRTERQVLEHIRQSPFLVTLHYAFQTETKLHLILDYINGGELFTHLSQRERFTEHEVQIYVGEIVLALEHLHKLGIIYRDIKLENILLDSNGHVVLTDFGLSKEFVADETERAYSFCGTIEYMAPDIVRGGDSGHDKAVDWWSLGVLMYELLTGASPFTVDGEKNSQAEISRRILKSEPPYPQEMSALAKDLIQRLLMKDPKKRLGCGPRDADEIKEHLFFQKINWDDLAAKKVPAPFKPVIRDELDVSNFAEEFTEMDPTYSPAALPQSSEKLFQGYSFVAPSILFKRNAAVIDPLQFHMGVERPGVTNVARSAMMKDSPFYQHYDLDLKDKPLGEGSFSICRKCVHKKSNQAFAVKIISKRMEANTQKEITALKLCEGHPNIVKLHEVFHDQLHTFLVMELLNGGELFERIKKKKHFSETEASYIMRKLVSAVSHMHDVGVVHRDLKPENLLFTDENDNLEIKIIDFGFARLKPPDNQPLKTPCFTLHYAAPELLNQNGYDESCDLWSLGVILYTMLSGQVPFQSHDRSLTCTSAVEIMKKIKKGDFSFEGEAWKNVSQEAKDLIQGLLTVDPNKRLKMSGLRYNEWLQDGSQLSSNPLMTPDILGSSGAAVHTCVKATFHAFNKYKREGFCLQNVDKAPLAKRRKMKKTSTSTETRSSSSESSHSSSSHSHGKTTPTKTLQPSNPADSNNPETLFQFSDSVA
Procedure: as §1

[5] = target: T5, BMPR1A (Homo sapiens, UniProt P36894)
T5 construct: purchased Reaction Biology Europe GmbH (formerly ProQinase)
T5 sequence (P36894 24-532): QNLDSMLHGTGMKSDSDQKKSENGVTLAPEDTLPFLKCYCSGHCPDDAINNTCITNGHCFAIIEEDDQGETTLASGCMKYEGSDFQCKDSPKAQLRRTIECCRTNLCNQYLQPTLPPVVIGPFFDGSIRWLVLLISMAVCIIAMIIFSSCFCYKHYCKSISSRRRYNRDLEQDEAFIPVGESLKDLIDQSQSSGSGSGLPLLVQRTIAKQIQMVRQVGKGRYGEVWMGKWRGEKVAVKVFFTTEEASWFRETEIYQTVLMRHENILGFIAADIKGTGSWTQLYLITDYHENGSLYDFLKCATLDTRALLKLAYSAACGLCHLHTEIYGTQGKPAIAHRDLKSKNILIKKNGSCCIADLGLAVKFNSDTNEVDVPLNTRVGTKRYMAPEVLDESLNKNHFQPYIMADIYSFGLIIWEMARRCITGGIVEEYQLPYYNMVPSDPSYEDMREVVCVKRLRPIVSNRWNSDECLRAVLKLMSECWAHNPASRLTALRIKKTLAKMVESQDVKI
Procedure: as §1

[6] = target: T6, RPS6KA4 (Homo sapiens, UniProt O75676)
T6 construct: purchased Reaction Biology Europe GmbH (formerly ProQinase)
T6 sequence (O75676 whole entry): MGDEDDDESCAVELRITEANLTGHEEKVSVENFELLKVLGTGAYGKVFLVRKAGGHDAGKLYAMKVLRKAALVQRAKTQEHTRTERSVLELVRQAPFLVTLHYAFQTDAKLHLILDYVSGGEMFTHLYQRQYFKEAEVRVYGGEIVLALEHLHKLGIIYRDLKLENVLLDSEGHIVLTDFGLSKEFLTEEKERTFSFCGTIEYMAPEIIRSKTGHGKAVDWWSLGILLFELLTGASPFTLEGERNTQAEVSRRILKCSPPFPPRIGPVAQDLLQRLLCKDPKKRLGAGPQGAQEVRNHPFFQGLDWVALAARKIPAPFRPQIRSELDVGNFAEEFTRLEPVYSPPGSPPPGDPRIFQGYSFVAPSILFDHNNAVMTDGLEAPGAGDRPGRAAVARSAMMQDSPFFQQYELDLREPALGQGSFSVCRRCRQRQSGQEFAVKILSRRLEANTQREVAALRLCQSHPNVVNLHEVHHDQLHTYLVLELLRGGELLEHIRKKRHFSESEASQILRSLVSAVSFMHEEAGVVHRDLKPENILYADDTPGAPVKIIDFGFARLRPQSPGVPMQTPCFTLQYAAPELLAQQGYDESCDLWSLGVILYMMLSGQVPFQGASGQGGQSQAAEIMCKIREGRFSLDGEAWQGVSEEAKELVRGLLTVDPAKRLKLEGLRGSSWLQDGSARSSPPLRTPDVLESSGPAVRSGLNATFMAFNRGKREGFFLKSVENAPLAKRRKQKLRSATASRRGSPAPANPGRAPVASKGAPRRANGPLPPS
Procedure: as §1

[7] = target: T7, CLK3 (Homo sapiens, UniProt P49761)
T7 construct: purchased Reaction Biology Europe GmbH (formerly ProQinase)
T7 sequence (P49761 whole entry): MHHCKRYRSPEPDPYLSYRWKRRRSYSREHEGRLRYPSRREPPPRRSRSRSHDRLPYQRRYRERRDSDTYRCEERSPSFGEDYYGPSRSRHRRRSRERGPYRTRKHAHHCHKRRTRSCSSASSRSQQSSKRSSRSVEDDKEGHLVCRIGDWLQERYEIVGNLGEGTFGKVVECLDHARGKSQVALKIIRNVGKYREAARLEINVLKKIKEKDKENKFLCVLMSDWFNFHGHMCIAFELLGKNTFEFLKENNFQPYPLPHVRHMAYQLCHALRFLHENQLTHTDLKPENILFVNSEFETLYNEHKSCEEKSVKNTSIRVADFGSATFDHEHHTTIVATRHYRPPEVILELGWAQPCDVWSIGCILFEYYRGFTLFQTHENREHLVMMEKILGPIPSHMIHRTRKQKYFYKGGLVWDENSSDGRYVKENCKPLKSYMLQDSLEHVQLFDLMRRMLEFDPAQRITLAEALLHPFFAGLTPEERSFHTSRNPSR
Procedure: as §1

[8] = target: T8, JAK2 (Homo sapiens, UniProt O60674)
T8 construct: purchased Reaction Biology Europe GmbH (formerly ProQinase)
T8 sequence (O60674 whole entry): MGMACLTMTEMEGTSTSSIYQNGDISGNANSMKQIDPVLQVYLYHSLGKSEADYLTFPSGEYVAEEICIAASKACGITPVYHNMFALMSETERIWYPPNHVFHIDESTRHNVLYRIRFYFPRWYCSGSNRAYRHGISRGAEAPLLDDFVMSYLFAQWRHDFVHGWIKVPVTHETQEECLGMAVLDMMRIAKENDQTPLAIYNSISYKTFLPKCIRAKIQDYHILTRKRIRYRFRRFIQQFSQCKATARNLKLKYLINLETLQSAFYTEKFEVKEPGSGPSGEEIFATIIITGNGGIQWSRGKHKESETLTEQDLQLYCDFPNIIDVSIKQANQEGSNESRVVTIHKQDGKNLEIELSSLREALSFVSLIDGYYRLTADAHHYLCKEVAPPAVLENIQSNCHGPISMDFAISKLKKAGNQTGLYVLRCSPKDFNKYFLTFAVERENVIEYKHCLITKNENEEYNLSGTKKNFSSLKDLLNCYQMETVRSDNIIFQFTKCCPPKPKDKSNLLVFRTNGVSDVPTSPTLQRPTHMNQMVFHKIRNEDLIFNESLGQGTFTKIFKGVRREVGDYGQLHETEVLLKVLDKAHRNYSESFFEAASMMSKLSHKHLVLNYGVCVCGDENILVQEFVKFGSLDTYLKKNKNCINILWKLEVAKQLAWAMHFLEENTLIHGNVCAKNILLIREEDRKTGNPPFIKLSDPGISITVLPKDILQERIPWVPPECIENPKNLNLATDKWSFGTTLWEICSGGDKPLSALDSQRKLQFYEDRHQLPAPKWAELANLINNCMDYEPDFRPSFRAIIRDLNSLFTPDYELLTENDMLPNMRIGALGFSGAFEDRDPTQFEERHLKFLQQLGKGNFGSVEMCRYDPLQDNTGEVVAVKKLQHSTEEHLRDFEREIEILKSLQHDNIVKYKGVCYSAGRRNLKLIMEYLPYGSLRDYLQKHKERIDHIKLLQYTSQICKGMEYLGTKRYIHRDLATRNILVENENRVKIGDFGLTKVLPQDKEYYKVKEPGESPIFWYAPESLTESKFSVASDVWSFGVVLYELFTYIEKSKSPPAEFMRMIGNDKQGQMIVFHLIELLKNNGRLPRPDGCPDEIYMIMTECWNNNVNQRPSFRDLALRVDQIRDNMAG
Procedure: as §1

| Compound | residual kinase activity ([1]; 0.3 µM) | residual kinase activity ([2]; 0.3 µM) | residual kinase activity ([3]; 0.3 µM) | residual kinase activity ([4]; 0.3 µM) | residual kinase activity ([5]; 0.3 µM) | residual kinase activity ([6]; 0.3 µM) | residual kinase activity ([7]; 0.3 µM) | residual kinase activity ([8]; 0.3 µM) | also measured |
| --- | --- | --- | --- | --- | --- | --- | --- | --- | --- |
| COc1ccnc2[nH]cc(-c3cc(N)nc(N)c3)c12 [meriolin 16] | 90 % of control | 81 % of control | 39 % of control | 82 % of control | 94 % of control | 89 % of control | 36 % of control | 80 % of control | residual kinase activity ([1]; 0.03 µM): 87 % of control; residual kinase activity ([2]; 0.03 µM): 103 % of control; residual kinase activity ([3]; 0.03 µM): 82 % of control; residual kinase activity ([4]; 0.03 µM): 89 % of control; residual kinase activity ([5]; 0.03 µM): 94 % of control; residual kinase activity ([6]; 0.03 µM): 90 % of control; residual kinase activity ([7]; 0.03 µM): 94 % of control; residual kinase activity ([8]; 0.03 µM): 102 % of control |
| c1ccc(CNc2cc(-c3c[nH]c4ncccc34)ccn2)cc1 [meriolin 36] | 81 % of control | 26 % of control | 29 % of control | 46 % of control | 105 % of control | 71 % of control | 13 % of control | 40 % of control | residual kinase activity ([1]; 3 µM): 74 % of control; residual kinase activity ([2]; 3 µM): 2 % of control; residual kinase activity ([3]; 3 µM): 9 % of control; residual kinase activity ([4]; 3 µM): 15 % of control; residual kinase activity ([5]; 3 µM): 61 % of control; residual kinase activity ([6]; 3 µM): 29 % of control; residual kinase activity ([7]; 3 µM): 1 % of control; residual kinase activity ([8]; 3 µM): 8 % of control |

Reference: paper PMC11167047 (Cell Death Discovery, 2024)
